{
  "source": "patent US20040204342A1",
  "about": "“Orthodontic remedies containing” (CHUGAI SEIYAKU KABUSHIKI KAISHA, priority 1996, published 2004)",
  "molecules": {"B1": {"name": "human PTH (1-84) (protein, UniProt P01270 32-115, looked up)", "Parathyroid hormone": "SVSEIQLMHNLGKHLNSMERVEWLRKKLQDVHNFVALGAPLAPRDAGSQRPRKKEDNVLVESHEKSLGEADKADVNVLTKAKSQ", "modifications": "Parathyroid hormone", "notes": "recombinant human parathyroid hormone consisting of 84 amino acid residues"}},
  "type_in_all_cases": "in vivo, rat",
  "key": {"male Wister rats [1]": {"system": "male Wister rats", "assay": "Experimental tooth movement by closed coil spring (mesial shift of M1), systemic continuous infusion or intermittent injection", "settings": "for mesial shift of M1 compared with control group: day 3", "source_text": "(§1) There are two methods for experimental tooth movement, i.e., one wherein an elastic band (made of rubber) is inserted between teeth and another one wherein a closed coil spring for orthodontics is used. The closed coil spring employed herein is Sentalloy closed coil spring 509-21 (made of Ni—Ti, manufactured by Tomy International K.K.) which can give an almost constant traction force of about 30 g within a spring-elongation range of 2 to 3 mm. […] When the initial elongation of the spring is regulated within the above-mentioned range, therefore, a constant force can be applied regardless of orthodontic tooth movement. When a rubber substance is inserted between molars, an extremely large force is applied immediately after the insertion but scarcely any force is applied after the target tooth is shifted by 0.5 mm. Accordingly, either the method with the insertion of an elastic (rubber) band or another one with the use of a closed coil spring may be used in experimental tooth movement within a short period of time. When a tooth is to be shifted over a long time, however, it is appropriate to use the latter method wherein the first molar is mesially shifted by elongating a closed coil spring. The method with the insertion of an elastic (rubber) band was employed in Example 1, while another method with the use of a closed coil spring was employed in Example 2.\n(§2) It has been already clarified that the continuous administration of PTH and the intermittent administration thereof differ from each other in their effect on bones. Thus, attempts were made to examine how PTH administered by either method would affect the experimental tooth movement. Use was made of 12 male Wister rats weighing 350 to 400 g. In the continuous PTH-administration group, an osmotic pump (2ML2, manufactured by Alzet, Palo Alto, Calif., USA) was subcutaneously implanted into the dorsal part of each rat followed by the continuous infusion of hPTH (1-34) (manufactured by Peptide Institute Inc., Mino) in a dose of 0.4 μg/100 g body weight/day or 4 μg/100 g body weight/day. As the control groups, use was made of 2 groups including (1) one to which the vehicle was continuously infused, and (2) an intermittent administration group to which 4 μg/100 g body weight/day of PTH was subcutaneously injected into the dorsal part once a day. From the next day of the initiation of the PTH-administration, an ultra-elastic closed coil spring (509-21, manufactured by Tomy International, K.K., Tokyo) was put between the upper incisive tooth and the right first molar M1 followed by the mesial traction of M1 for 12 days (FIG. 6-A, B). After the initiation of the shifting, the precise impression of the upper jaw was taken every 3 days by using a silicone impression material (Exafine, manufactured by GC, Tokyo) and the distance between the first molar and the second molar (M2) was measured on ultra-hard gypsum models (FIG. 6-C). After the completion of shifting over 12 days, arterial blood was collected from the abdominal aorta and various serum parameters were measured. After sacrificing each rat, the upper jaw and the right thickening bone were taken out. The upper jaw was decalcificated and then cut into a paraffin section of 8 μm in thickness involving, in the direction of the major axis, the buccal mesial root and the buccal distal root followed by HE-staining and histological observation. The bone mineral content and bone mineral density of the isolated the femur were measured by dual-x-ray absorptometry (DCS-600, manufactured by Aloka, Tokyo, Japan)."}, "male Wister rats [2]": {"system": "male Wister rats", "assay": "Experimental tooth movement by closed coil spring (mesial shift of M1), local administration of sustained release dosage form", "settings": "1 μg/400 g locally injected every 2 days (sustained release), FIG. 15", "source_text": "as §1, with “2. […]” for “2.”"}, "male Wister rats [3]": {"system": "male Wister rats", "assay": "Histological findings of periodontium and alveolar bone in closed coil spring tooth movement", "settings": "continuous systemic infusion group", "source_text": "as §2, with “The upper jaw was decalcificated and then cut into a paraffin section of 8 μm in thickness involving, in the direction of the major axis, the buccal mesial root and the buccal distal root followed by HE-staining and histological observation.” left out, “Japan). […]” for “Japan).”"}, "male Wister rats [4]": {"system": "male Wister rats", "assay": "Experimental tooth movement by elastic band inserted between M1 and M2 (teeth separation), continuous PTH infusion", "source_text": "as §1\n(§3) 18 rats were divided into 4 groups including a control group having 6 animals and 3 PTH-infusion groups each having 4 animals. PTH was dissolved in a citric acid-buffered saline containing 0.05% of Tween 80 and introduced into osmotic pumps. Then these pumps were implanted in the subcutus posterior region of the neck of the rats under ether anetheia. PTH was continuously infused into the rats in doses of 1, 3 and 10 μg/100 g body weight/day and the rats were fed with a standard pelletized feed (manufactured by Oriental Yeast Co., Ltd.). To the rats of the control group, vehicles were exclusively administered. 48 hours after implanting, a piece of an elastic band (0.8 mm in thickness) was inserted between the right upper first molar and second molar (between M1 and M2) of each rat under ether anetheia in accordance with the method of Wong-Rothblatt (1954) as shown in FIG. 1(A). On day 3 of the teeth separation, the rat was sacrificed by ether-inhalation. After cutting out the upper jaw, the distance between the adjacent faces of M1 and M2 was measured with the combined use of contact gauges (manufactured by Sun Dental, Osaka) of 50, 100 and 150 μm in thickness (FIGS. 1(B) and (C)). In the case of the control group, a contact gauge of 50 μm could be inserted between M1 and M2. Thus, the interdental distance was calculated by subtracting 50 μm from the measured distance of each animal. […] The upper jaw was fixed in 4% paraformaldehyde, decalcificated in 4% formic acid and then implanted in paraffin. […] Histological examinations were all performed in the pressured side of the M1 interradicular septa and osteoclasts in the area of 300×700 μm^2 in this region were counted (FIG. 1(C)). Osteoclasts were counted based on the fact that they were large multinuclear cells having been stained with eosin and located adjacent to the bone surface. The statistic differences between the control group and the test group was evaluated in accordance with Wilcoxon's rank-sum calibration method. […]"}, "osteoclasts": {"system": "osteoclasts", "assay": "Osteoclast count in the pressured side of the M1 interradicular septa during teeth separation", "settings": "for osteoclast count in the pressured side compared with control group: 10 μg/100 g body weight/day infusion, FIG. 5", "protocol": "as §3"}, "male Wister rats [5]": {"system": "male Wister rats", "assay": "Histological change in pressured periodontia during teeth separation", "protocol": "18 rats were divided into 4 groups including a control group having 6 animals and 3 PTH-infusion groups each having 4 animals. PTH was dissolved in a citric acid-buffered saline containing 0.05% of Tween 80 and introduced into osmotic pumps. Then these pumps were implanted in the subcutus posterior region of the neck of the rats under ether anetheia. PTH was continuously infused into the rats in doses of 1, 3 and 10 μg/100 g body weight/day and the rats were fed with a standard pelletized feed (manufactured by Oriental Yeast Co., Ltd.). To the rats of the control group, vehicles were exclusively administered. 48 hours after implanting, a piece of an elastic band (0.8 mm in thickness) was inserted between the right upper first molar and second molar (between M1 and M2) of each rat under ether anetheia in accordance with the method of Wong-Rothblatt (1954) as shown in FIG. 1(A). On day 3 of the teeth separation, the rat was sacrificed by ether-inhalation. After cutting out the upper jaw, the distance between the adjacent faces of M1 and M2 was measured with the combined use of contact gauges (manufactured by Sun Dental, Osaka) of 50, 100 and 150 μm in thickness (FIGS. 1(B) and (C)). In the case of the control group, a contact gauge of 50 μm could be inserted between M1 and M2. Thus, the interdental distance was calculated by subtracting 50 μm from the measured distance of each animal. […] The upper jaw was fixed in 4% paraformaldehyde, decalcificated in 4% formic acid and then implanted in paraffin. Subsequently, these preparations were cut into continuous mesiodistal sections of 8 μm in thickness and stained with hematoxylin and eosin. Histological examinations were all performed in the pressured side of the M1 interradicular septa and osteoclasts in the area of 300×700 μm^2 in this region were counted (FIG. 1(C)). Osteoclasts were counted based on the fact that they were large multinuclear cells having been stained with eosin and located adjacent to the bone surface. The statistic differences between the control group and the test group was evaluated in accordance with Wilcoxon's rank-sum calibration method. Each of the data was expressed in average±SEM. A P value less than 0.05 was regarded as being statistically significant.\n32 rats were divided into 2 test groups each having 16 animals. […] To the rats of the control group, vehicles were exclusively administered. 2 days after implanting osmotic pumps, an elastic band was inserted between the right M1 and M2 of each rat. On days 0, 1, 3 and 5 of the teeth separation (i.e., on days 2, 3, 5 and 7 of the PTH infusion), the rats were sacrificed followed by the same procedures as those performed in Experiment 1."}, "[6]": {"settings": "1 μg/100 g body weight/day and 3 μg/100 g body weight/day groups"}},
  "data": [
    {"molecule": "human PTH (1-34) [hPTH (1-34)]", "values": [
      {"measurement": "tooth shift-promoting effect", "setting": "male Wister rats [1]; continuous PTH infusion group, after day 9, FIG. 10", "value": "observed more remarkably"},
      {"measurement": "mesial shift of M1 compared with control group", "setting": "male Wister rats [1]; continuous PTH infusion group, FIG. 10", "value": "slightly significantly promoted"},
      {"measurement": "mesial shift of M1 relative to control group", "setting": "male Wister rats [1]; continuous infusion of 4 μg/100 g body weight/day, day 12", "value": "twice"},
      {"measurement": "mesial shift of M1", "setting": "male Wister rats [1]; continuous infusion of 4 μg/100 g body weight/day, day 12 of tooth movement", "value": "1.01±0.09", "unit": "mm"},
      {"measurement": "shift of M1, dose dependence", "setting": "male Wister rats [1]; continuous infusion of 0.4 or 4 μg/100 g body weight/day, day 12, FIG. 7", "value": "promoted depending on the dose"},
      {"measurement": "mesial shift of M1 compared with control group", "setting": "male Wister rats [1]; intermittent PTH injection group (4 μg/100 g body weight/day s.c. once a day), FIG. 10", "value": "slightly significantly promoted"},
      {"measurement": "M1 shifting distance compared with control group", "setting": "male Wister rats [1]; intermittent PTH injection group, after day 6, FIG. 10", "value": "no significant difference"},
      {"measurement": "tooth movement-promoting effect", "setting": "male Wister rats [2]; after day 9", "value": "more remarkable"},
      {"measurement": "mesial M1 shift", "setting": "male Wister rats [2]; since day 3", "value": "tendency that the mesial M1 shift was promoted"},
      {"measurement": "bone resorption in the mesial alveolar bone of M1 compared with control group", "setting": "male Wister rats [3]", "value": "energetic bone resorption"},
      {"measurement": "bone resorption in the distal side of the alveolar septum", "setting": "male Wister rats [3]; FIG. 16-B", "value": "remarkable bone resorption was observed over a wide range"},
      {"measurement": "necrotic tissue in the periodontal membrane, compared with control group", "setting": "male Wister rats [3]; FIG. 16-B", "value": "no such necrotic tissue"}
    ]},
    {"molecule": "B1", "values": [
      {"measurement": "distance between M1 and M2 compared with control group", "setting": "male Wister rats [4]; Experiment 1, 10 μg/100 g body weight/day continuous infusion, elastic band for 3 days, FIG. 2", "value": "significant increase"},
      {"measurement": "teeth separation distance compared with control group", "setting": "male Wister rats [4]; Experiment 2, 10 μg/100 g body weight/day infusion, day 1, FIG. 3", "value": "no significant difference"},
      {"measurement": "teeth separation distance compared with control group", "setting": "male Wister rats [4]; Experiment 2, 10 μg/100 g body weight/day infusion, day 3, FIG. 3", "value": "significant increase"},
      {"measurement": "teeth separation", "setting": "male Wister rats [4]; Experiment 2, 10 μg/100 g body weight/day infusion, day 5, FIG. 3", "value": "almost reached the limit"},
      {"measurement": "dose of PTH infusion achieving the maximum effect on teeth separation", "setting": "male Wister rats [4]; continuous infusion of 1, 3 and 10 μg/100 g body weight/day, day 3 of teeth separation, FIG. 2", "value": 10, "unit": "μg/100 g body weight/day"},
      {"measurement": "osteoclast count in the pressured side compared with control group", "setting": "osteoclasts; day 5", "value": "no significant difference"},
      {"measurement": "osteoclast count in the pressured side compared with control group", "setting": "osteoclasts; from day 1", "value": "significant increase"},
      {"measurement": "osteoclast count in the pressured side of the periodontia, test groups and control group compared", "setting": "osteoclasts; 1, 3 and 10 μg/100 g body weight/day infusion (all 3 test groups), elastic band for 3 days, FIG. 4", "value": "significant increase"},
      {"measurement": "bone resorption compared with vehicle-treated rats", "setting": "male Wister rats [5]; [6]", "value": "bone resorption seemingly arose over wider range"},
      {"measurement": "necrotic tissue in the pressured periodontia", "setting": "male Wister rats [5]; [6]", "value": "necrotic tissue was also observed"},
      {"measurement": "necrotic tissue in the pressured periodontia", "setting": "male Wister rats [5]; 10 μg/100 g body weight/day, day 1 of teeth separation", "value": "necrotic tissue was observed"},
      {"measurement": "necrotic tissue in the pressured periodontia", "setting": "male Wister rats [5]; 10 μg/100 g body weight/day, day 3 of teeth separation", "value": "no necrosis"}
    ]}
  ]
}
